Where two headings read alike, the source gives them in different places.

Assay in all cases: Kinase selectivity, DiscoverX scanMAX Kinase assay panel (% control)
What all share (format): binding

In assay [1] the target is T1, kinases of the scanMAX Kinase assay panel (Homo sapiens, UniProt P10721, D816V).
T1 construct: purchased DiscoverX Co. (contract measurement) scanMAX Kinase assay panel
Particulars: KIT(D816V); 1 uM. The method in brief:
(§1)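 Read-out is % control, normalised so a positive-control compound sits at 0% and DMSO at 100%: (test − positive)/(negative − positive)×100. Each kinase received the compound at 1 uM in DMSO. A value below 35% counts as activity.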

The target of assay [2] is T2, kinases of the scanMAX Kinase assay panel (Homo sapiens, UniProt P42336, E545A).
T2 construct: purchased DiscoverX Co. (contract measurement) scanMAX Kinase assay panel
T2 sequence (P42336 whole entry E545A): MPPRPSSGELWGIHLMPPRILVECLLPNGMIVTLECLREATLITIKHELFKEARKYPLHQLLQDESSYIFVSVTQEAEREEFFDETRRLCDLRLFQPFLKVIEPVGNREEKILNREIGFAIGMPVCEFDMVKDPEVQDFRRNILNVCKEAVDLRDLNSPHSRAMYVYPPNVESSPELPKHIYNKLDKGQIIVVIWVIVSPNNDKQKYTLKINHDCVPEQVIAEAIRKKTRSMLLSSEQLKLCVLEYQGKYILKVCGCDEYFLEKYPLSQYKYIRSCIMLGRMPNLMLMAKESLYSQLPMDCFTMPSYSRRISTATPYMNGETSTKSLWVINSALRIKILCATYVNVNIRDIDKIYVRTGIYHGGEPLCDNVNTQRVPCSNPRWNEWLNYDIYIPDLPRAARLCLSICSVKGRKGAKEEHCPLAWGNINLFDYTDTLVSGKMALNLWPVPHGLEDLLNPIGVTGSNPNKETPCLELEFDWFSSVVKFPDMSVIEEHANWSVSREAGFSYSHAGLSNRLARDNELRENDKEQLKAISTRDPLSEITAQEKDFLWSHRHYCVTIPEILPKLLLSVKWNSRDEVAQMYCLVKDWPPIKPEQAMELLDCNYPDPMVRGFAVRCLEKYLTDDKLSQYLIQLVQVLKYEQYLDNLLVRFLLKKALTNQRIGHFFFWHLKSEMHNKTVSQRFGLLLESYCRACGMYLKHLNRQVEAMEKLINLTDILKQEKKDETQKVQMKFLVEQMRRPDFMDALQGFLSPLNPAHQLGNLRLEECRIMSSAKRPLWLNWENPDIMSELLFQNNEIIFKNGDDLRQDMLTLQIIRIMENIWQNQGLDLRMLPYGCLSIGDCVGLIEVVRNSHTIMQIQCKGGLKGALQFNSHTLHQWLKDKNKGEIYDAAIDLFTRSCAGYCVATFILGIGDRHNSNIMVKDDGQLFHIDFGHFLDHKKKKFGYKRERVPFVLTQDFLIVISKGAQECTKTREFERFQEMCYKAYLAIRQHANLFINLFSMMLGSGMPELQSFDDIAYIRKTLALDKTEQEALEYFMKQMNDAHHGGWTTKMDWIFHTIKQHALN
Particulars: PIK3CA(E545A); 1 uM. The method in brief:
as §1

Assay [3] deals with T3, kinases of the scanMAX Kinase assay panel (Homo sapiens, UniProt O75676).
T3 construct: purchased DiscoverX Co. (contract measurement) scanMAX Kinase assay panel
T3 sequence (O75676 whole entry): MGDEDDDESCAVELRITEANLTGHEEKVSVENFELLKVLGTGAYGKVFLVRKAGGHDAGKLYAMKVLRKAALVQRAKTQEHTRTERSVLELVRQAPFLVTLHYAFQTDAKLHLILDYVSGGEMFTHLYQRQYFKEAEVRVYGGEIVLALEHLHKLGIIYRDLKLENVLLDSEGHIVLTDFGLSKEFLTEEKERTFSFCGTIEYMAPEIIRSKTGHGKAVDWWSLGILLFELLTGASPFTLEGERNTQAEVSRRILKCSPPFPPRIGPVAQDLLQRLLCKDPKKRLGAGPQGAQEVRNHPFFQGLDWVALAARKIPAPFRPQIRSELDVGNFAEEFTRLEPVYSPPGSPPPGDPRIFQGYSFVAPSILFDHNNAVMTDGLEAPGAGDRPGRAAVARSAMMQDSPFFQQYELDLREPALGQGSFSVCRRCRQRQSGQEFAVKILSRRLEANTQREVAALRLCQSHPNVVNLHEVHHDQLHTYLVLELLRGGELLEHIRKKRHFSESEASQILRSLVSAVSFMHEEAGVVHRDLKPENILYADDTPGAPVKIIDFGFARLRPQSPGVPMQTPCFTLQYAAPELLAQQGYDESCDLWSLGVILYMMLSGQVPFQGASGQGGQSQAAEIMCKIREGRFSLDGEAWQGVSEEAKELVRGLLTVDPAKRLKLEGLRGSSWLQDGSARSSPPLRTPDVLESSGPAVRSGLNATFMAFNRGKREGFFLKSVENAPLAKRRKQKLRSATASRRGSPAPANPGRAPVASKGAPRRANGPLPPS
The settings on record: 1 uM in DMSO. In short, it runs like this:
as §1

Assay [4] has as its target T4, kinases of the scanMAX Kinase assay panel (Homo sapiens, UniProt P42338).
T4 construct: purchased DiscoverX Co. (contract measurement) scanMAX Kinase assay panel
The settings on record: PIK3CB; 1 uM. In short, it runs like this:
as §1

Assay [5] concerns the target T5, kinases of the scanMAX Kinase assay panel (Homo sapiens, UniProt P68400).
T5 construct: purchased DiscoverX Co. (contract measurement) scanMAX Kinase assay panel
The settings on record: CSNK2A1; 1 uM. In short, it runs like this: as §1

The target in assay [6] is T6, kinases of the scanMAX Kinase assay panel (Homo sapiens, UniProt Q9UBE8).
T6 construct: purchased DiscoverX Co. (contract measurement) scanMAX Kinase assay panel
T6 sequence (Q9UBE8 1-527): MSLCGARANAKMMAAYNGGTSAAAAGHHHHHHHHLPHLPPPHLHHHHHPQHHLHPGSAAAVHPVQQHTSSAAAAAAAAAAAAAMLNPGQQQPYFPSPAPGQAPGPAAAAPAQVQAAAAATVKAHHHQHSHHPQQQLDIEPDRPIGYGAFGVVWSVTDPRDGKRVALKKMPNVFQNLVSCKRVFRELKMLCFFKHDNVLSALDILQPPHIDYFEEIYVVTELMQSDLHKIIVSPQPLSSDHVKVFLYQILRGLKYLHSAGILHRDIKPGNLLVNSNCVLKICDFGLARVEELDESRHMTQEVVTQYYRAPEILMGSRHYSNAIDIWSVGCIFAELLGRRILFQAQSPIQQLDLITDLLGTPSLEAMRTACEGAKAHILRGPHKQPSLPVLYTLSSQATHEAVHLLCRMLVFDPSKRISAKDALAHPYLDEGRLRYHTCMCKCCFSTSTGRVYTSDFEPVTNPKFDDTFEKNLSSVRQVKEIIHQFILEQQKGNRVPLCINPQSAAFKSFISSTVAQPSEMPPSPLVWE
The settings on record: NLK; 1 uM. In short, it runs like this:
as §1

Assay [7] has as its target T7, kinases of the scanMAX Kinase assay panel (Homo sapiens, UniProt P42345).
T7 construct: purchased DiscoverX Co. (contract measurement) scanMAX Kinase assay panel
The settings on record: MTOR; 1 uM. In short, it runs like this: as §1

The target in assay [8] is T8, kinases of the scanMAX Kinase assay panel (Homo sapiens, UniProt O94804).
T8 construct: purchased DiscoverX Co. (contract measurement) scanMAX Kinase assay panel
The settings on record: LOK; 1 uM. In short, it runs like this:
as §1

Assay [9] has as its target T9, kinases of the scanMAX Kinase assay panel (Homo sapiens, UniProt P29597).
T9 construct: purchased DiscoverX Co. (contract measurement) scanMAX Kinase assay panel
Particulars: 1 uM in DMSO. In short, it runs like this:
as §1

Assay [10] addresses T10, kinases of the scanMAX Kinase assay panel (Homo sapiens, UniProt Q99755).
T10 construct: purchased DiscoverX Co. (contract measurement) scanMAX Kinase assay panel
The settings on record: PIP5K1A; 1 uM. The method in brief:
as §1

For assay [11], the target named is T11, kinases of the scanMAX Kinase assay panel (Homo sapiens, UniProt Q9Y6M4).
T11 construct: purchased DiscoverX Co. (contract measurement) scanMAX Kinase assay panel
T11 sequence (Q9Y6M4 whole entry): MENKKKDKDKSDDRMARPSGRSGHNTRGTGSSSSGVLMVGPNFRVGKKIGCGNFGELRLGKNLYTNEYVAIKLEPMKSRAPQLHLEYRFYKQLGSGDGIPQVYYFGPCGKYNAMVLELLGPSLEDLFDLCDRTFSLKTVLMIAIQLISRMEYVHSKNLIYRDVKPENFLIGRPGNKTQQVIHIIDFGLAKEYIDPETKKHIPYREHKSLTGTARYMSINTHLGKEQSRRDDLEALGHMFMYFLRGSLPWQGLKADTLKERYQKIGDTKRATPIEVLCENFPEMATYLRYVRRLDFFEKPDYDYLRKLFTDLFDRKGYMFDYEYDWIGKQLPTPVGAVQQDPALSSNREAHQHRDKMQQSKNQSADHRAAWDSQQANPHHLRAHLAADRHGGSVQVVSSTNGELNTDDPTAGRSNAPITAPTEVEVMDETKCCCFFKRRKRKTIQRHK
The settings on record: CSNK1G3; 1 uM. In short, it runs like this: as §1

Assay [12] deals with T12, kinases of the scanMAX Kinase assay panel (Homo sapiens, UniProt O94806).
T12 construct: purchased DiscoverX Co. (contract measurement) scanMAX Kinase assay panel
T12 sequence (O94806 1-890): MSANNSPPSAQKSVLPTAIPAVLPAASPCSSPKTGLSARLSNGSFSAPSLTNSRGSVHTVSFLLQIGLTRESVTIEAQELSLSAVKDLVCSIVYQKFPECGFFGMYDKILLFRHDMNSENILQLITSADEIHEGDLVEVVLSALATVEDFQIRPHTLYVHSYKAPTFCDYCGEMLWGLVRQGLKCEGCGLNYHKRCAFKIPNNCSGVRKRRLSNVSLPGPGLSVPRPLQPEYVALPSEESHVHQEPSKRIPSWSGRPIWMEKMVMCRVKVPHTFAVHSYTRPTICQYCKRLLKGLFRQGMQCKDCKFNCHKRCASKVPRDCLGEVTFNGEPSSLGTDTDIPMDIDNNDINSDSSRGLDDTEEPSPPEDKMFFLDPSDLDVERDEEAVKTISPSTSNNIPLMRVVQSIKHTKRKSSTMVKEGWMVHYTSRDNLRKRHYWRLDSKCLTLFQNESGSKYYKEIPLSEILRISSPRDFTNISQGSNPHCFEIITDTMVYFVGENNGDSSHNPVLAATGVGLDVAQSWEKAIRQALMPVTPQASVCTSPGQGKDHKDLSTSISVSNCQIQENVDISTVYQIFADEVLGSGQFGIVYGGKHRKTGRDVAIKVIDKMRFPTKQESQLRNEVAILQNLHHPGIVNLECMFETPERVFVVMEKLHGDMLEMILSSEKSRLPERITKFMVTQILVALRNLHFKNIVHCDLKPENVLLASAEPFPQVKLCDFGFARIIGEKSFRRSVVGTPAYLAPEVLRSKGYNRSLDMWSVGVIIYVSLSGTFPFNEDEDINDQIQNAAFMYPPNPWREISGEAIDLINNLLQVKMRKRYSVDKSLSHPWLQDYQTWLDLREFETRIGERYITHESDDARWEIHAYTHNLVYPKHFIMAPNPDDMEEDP
The settings on record: PRKD3; 1 uM. In short, it runs like this: as §1

The target of assay [13] is T13, kinases of the scanMAX Kinase assay panel (Homo sapiens, UniProt P57059).
T13 construct: purchased DiscoverX Co. (contract measurement) scanMAX Kinase assay panel
Particulars: kinase SIK; 1 uM in DMSO. In short, it runs like this: as §1

Where [14] appears, read: kinase RPS6KA4(Kin.Dom.1-N-terminal), read-out: % control, RPS6KA4(Kin.Dom.1-N-terminal).
[15] abbreviates: kinase RPS6KA4(Kin.Dom.2-C-terminal), read-out: % control, RPS6KA4(Kin.Dom.2-C-terminal).
[16] abbreviates: kinase TYK2(JH1domain-catalytic), read-out: % control, TYK2(JH1domain-catalytic).
Setting [17] is: kinase TYK2(JH2domain-pseudokinase), read-out: % control, TYK2(JH2domain-pseudokinase).

T5 sequence (P68400 whole entry): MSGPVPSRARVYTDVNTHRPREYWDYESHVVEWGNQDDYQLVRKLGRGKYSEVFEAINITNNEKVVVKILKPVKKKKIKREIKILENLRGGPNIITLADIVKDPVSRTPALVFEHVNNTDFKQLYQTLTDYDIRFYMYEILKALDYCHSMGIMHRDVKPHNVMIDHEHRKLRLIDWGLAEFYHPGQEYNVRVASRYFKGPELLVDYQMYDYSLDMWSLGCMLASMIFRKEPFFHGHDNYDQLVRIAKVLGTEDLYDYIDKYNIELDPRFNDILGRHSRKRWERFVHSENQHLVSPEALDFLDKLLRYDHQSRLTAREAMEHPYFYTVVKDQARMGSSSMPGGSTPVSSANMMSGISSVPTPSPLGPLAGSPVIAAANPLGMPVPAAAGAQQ
T1 sequence (P10721 26-976 D816V): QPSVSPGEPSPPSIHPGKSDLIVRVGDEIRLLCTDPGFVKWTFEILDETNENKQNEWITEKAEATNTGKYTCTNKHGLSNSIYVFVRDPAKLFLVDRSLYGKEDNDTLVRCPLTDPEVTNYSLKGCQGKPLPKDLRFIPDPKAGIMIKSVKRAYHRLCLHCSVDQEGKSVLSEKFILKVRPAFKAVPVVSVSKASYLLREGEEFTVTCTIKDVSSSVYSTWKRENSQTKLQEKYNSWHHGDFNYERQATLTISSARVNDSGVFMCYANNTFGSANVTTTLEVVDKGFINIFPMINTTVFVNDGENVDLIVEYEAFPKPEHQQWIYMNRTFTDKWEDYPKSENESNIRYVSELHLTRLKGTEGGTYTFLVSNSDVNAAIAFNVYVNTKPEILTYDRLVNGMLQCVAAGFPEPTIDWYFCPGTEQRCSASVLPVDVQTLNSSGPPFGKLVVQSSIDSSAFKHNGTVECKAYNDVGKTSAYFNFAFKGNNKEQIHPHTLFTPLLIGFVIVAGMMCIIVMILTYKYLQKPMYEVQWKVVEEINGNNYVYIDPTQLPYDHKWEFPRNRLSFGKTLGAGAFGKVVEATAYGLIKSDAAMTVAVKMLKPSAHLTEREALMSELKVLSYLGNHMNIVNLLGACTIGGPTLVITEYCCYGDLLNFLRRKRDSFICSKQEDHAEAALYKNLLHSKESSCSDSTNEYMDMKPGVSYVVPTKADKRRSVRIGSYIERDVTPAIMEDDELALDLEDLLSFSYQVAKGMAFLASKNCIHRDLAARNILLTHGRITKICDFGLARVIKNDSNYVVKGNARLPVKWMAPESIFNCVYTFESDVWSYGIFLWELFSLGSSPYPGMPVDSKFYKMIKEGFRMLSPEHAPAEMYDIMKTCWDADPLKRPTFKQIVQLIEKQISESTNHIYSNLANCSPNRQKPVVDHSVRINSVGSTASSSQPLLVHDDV
T4 sequence (P42338 whole entry): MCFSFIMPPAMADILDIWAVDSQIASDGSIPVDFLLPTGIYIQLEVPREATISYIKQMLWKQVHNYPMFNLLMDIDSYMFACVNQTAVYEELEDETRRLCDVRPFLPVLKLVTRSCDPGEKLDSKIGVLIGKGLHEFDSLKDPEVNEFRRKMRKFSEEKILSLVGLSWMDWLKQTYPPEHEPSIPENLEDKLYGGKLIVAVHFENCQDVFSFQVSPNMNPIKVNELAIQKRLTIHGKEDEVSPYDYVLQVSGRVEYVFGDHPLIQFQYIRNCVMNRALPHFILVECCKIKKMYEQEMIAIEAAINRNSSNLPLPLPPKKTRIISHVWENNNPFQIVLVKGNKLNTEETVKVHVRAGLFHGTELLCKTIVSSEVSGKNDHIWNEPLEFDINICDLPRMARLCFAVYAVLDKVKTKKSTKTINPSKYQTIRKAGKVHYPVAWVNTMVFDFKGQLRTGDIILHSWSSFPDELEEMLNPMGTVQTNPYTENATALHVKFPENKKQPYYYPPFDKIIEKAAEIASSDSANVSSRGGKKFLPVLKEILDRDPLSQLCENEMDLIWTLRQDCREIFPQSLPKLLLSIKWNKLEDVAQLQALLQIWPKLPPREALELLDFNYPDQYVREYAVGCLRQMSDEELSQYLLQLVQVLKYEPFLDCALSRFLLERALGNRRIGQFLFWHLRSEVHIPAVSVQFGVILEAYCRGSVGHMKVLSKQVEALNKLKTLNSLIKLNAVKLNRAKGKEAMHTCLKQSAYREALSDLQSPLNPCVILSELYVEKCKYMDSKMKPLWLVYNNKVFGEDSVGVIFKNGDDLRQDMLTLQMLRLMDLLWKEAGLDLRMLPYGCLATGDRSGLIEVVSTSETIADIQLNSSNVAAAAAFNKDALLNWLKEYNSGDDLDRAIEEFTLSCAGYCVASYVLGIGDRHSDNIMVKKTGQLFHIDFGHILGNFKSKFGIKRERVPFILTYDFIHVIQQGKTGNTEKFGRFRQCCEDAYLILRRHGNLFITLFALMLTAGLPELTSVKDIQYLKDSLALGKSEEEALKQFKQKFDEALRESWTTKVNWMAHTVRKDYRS

As for `CNc1nc(Nc2ccc(C(=O)N3CCOCC3)cc2OC)nc2[nH]cc(C#N)c12` [Example 1, 2-((2-methoxy-4-(morpholine-4-carbonyl)phenyl)amino)-4-(methylamino)-7H-pyrrolo[2,3-d]pyrimidine-5-carbonitrile], the remaining binding at 1 µM in assay [1] is 89%; in assay [2] it was 94%; in assay [3] (setting [14]), 92%; in [3] (setting [15]), 0.2%; in assay [4], 96%; in [5], 59%. The remaining binding at 1 µM in [6] worked out at 98%; in [7], 100%; in assay [8], 95%; in [9] (setting [16]) it was 80%; in assay [9] (setting [17]), 66%; in assay [10] it was 99%. The remaining binding at 1 µM in [11] amounted to 58%; in [12], 39%; in [13] it was 97%.
Turning to `CC1(Nc2nc(Nc3cnn([C@H]4CCN(C5COC5)C[C@@H]4F)c3Cl)nc3[nH]cc(C#N)c23)CC1` [Example 52, 2-((5-chloro-1-((3S,4S)-3-fluoro-1-(oxetane-3-yl)piperidine-4-yl)-1H-pyrazole-4-yl)amino)((1-methylcyclopropyl)amino)-7H-pyrrolo[2,3-d]pyrimidine-5-carbonitrile], the remaining binding at 1 µM in [1] came out at 0.15%; in [2], 71%; in assay [3] (setting [14]), 68%; in assay [3] (setting [15]) it was 2.2%; in assay [4], 100%; in assay [5], 24%. Besides, the remaining binding at 1 µM in assay [6] is 75%; in assay [7], 66%; in assay [8], 74%; in [9] (setting [16]), 0%; in assay [9] (setting [17]), 7.2%; in assay [10], 2.5%. Further, the remaining binding at 1 µM in [11] was found to be 0.15%; in assay [12], 0.7%; in assay [13], 78%.
`CCNc1nc(Nc2ccc(C(=O)N3CCC(N4CCOCC4)CC3)cc2OC)nc2[nH]cc(C(F)(F)F)c12` [Example 104, (4-((4-(ethylamino)-5-(trifluoromethyl)-7H-pyrrolo[2,3-d]pyrimidine-2-yl)amino)-3-methoxyphenyl)(4-morpholinopiperidine-1-yl)methanone]: the remaining binding at 1 µM in [1] worked out at 99%; in assay [2] it was 90%; in assay [3] (setting [14]) it was 100%; in assay [3] (setting [15]) it was 18%; in assay [4] it was 92%; in assay [5], 73%. The remaining binding at 1 µM was determined as 69% in [6]; 100% in assay [7]; 100% in [8]; 100% in [9] (setting [16]); 100% in assay [9] (setting [17]); 100% in assay [10]. Also, the remaining binding at 1 µM in assay [11] came to 90%; in assay [12], 17%; in assay [13], 100%.

These data come from patent US11208412B2 (DAEGU-GYEONGBUK MEDICAL INNOVATION FOUNDATION, priority 2017, dated 2021).
